Measured values as given in US12331040B2 (Karyopharm Therapeutics Inc., priority 2013, dated 2025).
Read-outs that look alike come from different tables or passages of the source.

How the values were obtained:
Assay in all cases: MTT cell proliferation assay
Type in all cases: cell-based
[1] = tested on: 3T3 cells; conditions: Mus musculus, NIH3T3, approximately 64-72 hours incubation
Outline: (§1)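 5,000-10,000 cells/well, overnight attach; 8 conc., 1 nM–30 μM; MTT ~4 h; formazan solubilized, OD 490 nm; % inhibition = (1−(ODo/OD))×100 vs neg. control; mostly duplicate, mean±SE.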

[2] = tested on: MS751 cells; conditions: Homo sapiens, MS751, MS751 cells, approximately 64-72 hours incubation
Outline: as §1

[3] = tested on: Z138 cells; conditions: Homo sapiens, Z-138, Z138 cells, approximately 64-72 hours incubation
Outline: as §1

[4] = read-out: MTT Assay IC50 MS-751
[5] = read-out: MTT Assay IC50, MS-751
[6] = read-out: MTT Assay IC50, Z-138

| Compound | IC50 ([1]; read-out: MTT Assay IC50 3T3) [µM] | IC50 [2, 4] [µM] | IC50 ([3]; read-out: MTT Assay IC50 Z-138) [µM] | IC50 ([1]; read-out: MTT Assay IC50, 3T3) [µM] | IC50 [2, 5] [µM] | IC50 [3, 6] [µM] |
| --- | --- | --- | --- | --- | --- | --- |
| Nc1ccc(/C=C/C(=O)NCc2cc3cc(-c4ccc(C(=O)NC5CCC(F)(F)CC5)cn4)cc(C(F)(F)F)c3o2)cn1 [Compound 629, (E)-6-(2-((3-(6-aminopyridin-3-yl)acrylamido)methyl)-7-(trifluoromethyl)benzofuran-5-yl)-N-(4,4-difluorocyclohexyl)nicotinamide] | > 10 | 0.1 to 5 | 0.1 to 5 | – | – | – |
| Nc1ccc(/C=C/C(=O)NCc2cc3cc(-c4ncc(C(=O)N5CCC(F)(F)CC5)cc4F)cc(-c4ccc(F)cc4)c3o2)cn1 [Compound 764, (E)-3-(6-aminopyridin-3-yl)-N-((5-(5-(4,4-difluoropiperidine-1-carbonyl)-3-fluoropyridin-2-yl)-7-(4-fluorophenyl)benzofuran-2-yl)methyl)acrylamide] | – | – | – | 0.1 to 5 | < 0.1 | < 0.1 |
| Nc1ccc(/C=C/C(=O)NCc2cc3cc(-c4ccc(OC(=O)N5CCOCC5)cc4)cc(Cl)c3o2)cn1 [Compound 556, (E)-4-(2-((3-(6-aminopyridin-3-yl)acrylamido)methyl)-7-chlorobenzofuran-5-yl)phenyl morpholine-4-carboxylate] | > 10 | 0.1 to 5 | 0.1 to 5 | – | – | – |
| Nc1ccc(/C=C/C(=O)NCc2cc3cc(-c4ccc(C(=O)N5CCC(Cl)CC5)cn4)cc(C(F)(F)F)c3o2)cn1 [Compound 614, (E)-3-(6-aminopyridin-3-yl)-N-((5-(5-(4-chloropiperidine-1-carbonyl)pyridin-2-yl)-7-(trifluoromethyl)benzofuran-2-yl)methyl)acrylamide] | > 10 | 0.1 to 5 | 0.1 to 5 | – | – | – |
| Nc1ccc(/C=C/C(=O)NCc2cc3cc(-c4ccc(C(=O)N5CCNCC5)cn4)cc(Cl)c3o2)cn1 [Compound 589, (E)-3-(6-aminopyridin-3-yl)-N-((7-chloro-5-(5-(piperazine-1-carbonyl)pyridin-2-yl)benzofuran-2-yl)methyl)acrylamide] | > 10 | 0.1 to 5 | < 0.1 | – | – | – |
| O=C(/C=C/c1cccnc1)NCc1cc2cc(-c3ccc(C(=O)N4CCC(F)(F)CC4)cc3)cc(OC(F)(F)F)c2o1 [Compound 687, (E)-N-((5-(4-(4,4-difluoropiperidine-1-carbonyl)phenyl)-7-(trifluoromethoxy)benzofuran-2-yl)methyl)-3-(pyridin-3-yl)acrylamide] | – | – | – | 0.1 to 5 | < 0.1 | < 0.1 |
| CC1(O)CN(C(=O)c2ccc(-c3cc(C(F)(F)F)c4oc(CNC(=O)/C=C/c5ccc(N)nc5)cc4c3)nc2)C1 [Compound 621, (E)-3-(6-aminopyridin-3-yl)-N-((5-(5-(3-hydroxy-3-methylazetidine-1-carbonyl)pyridin-2-yl)-7-(trifluoromethyl)benzofuran-2-yl)methyl)acrylamide] | > 10 | 0.1 to 5 | 0.1 to 5 | – | – | – |
| Nc1ccc(/C=C/C(=O)NCc2cc3cc(-c4ccc(C(=O)N5CCNCC5)cc4)cc(Cl)c3o2)cn1 [Compound 601] | > 10 | 0.1 to 5 | 0.1 to 5 | – | – | – |
| COc1cc(-c2ccc(C(=O)N3CCOCC3)cc2)cc2cc(CNC(=O)/C=C/c3ccc(N)nc3)oc12 [Compound 592, (E)-3-(6-aminopyridin-3-yl)-N-((7-methoxy-5-(4-(morpholine-4-carbonyl)phenyl)benzofuran-2-yl)methyl)acrylamide] | > 10 | 0.1 to 5 | < 0.1 | – | – | – |
| Nc1ccc(/C=C/C(=O)NCc2cc3cc(-c4ccc(C(=O)N5CCC(F)(F)CC5)cc4)cc(-c4cc(Cl)c(F)cc4F)c3o2)cn1 [Compound 698, (E)-3-(6-aminopyridin-3-yl)-N-((7-(5-chloro-2,4-difluorophenyl)-5-(4-(4,4-difluoropiperidine-1-carbonyl)phenyl)benzofuran-2-yl)methyl)acrylamide] | – | – | – | 0.1 to 5 | < 0.1 | < 0.1 |
| Nc1ccc(/C=C/C(=O)NCc2cc3cc(-c4ccc(C(=O)N5CCC(F)(F)CC5)cn4)cc(-c4nnco4)c3o2)cn1 [Compound 662, (E)-3-(6-aminopyridin-3-yl)-N-((5-(5-(4,4-difluoropiperidine-1-carbonyl)pyridin-2-yl)-7-(1,3,4-oxadiazol-2-yl)benzofuran-2-yl)methyl)acrylamide] | – | – | – | > 10 | 0.1 to 5 | 0.1 to 5 |
| COc1ccc(-c2ccc(S(=O)(=O)N3CCOCC3)cc2)c2cc(CNC(=O)/C=C/c3ccc(N)nc3)oc12 [Compound 554, (E)-3-(6-aminopyridin-3-yl)-N-((7-methoxy-4-(4-(morpholinosulfonyl)phenyl)benzofuran-2-yl)methyl)acrylamide] | > 10 | 0.1 to 5 | < 0.1 | – | – | – |
| Nc1ccc(/C=C/C(=O)NCc2cc3cc(-c4ccc(S(=O)(=O)N5CC(F)(F)C5)cc4)cc(C(F)(F)F)c3o2)cn1 [Compound 644, (E)-3-(6-aminopyridin-3-yl)-N-((5-(4-(3,3-difluoroazetidin-1-ylsulfonyl)phenyl)-7-(trifluoromethyl)benzofuran-2-yl)methyl)acrylamide] | > 10 | 5 to 10 | 0.1 to 5 | – | – | – |
| Nc1ccc(/C=C/C(=O)NCc2cc3cc(-c4ncc(C(=O)N5CCOCC5)cn4)cc(C(F)(F)F)c3o2)cn1 [Compound 593, (E)-3-(6-aminopyridin-3-yl)-N-((5-(5-(morpholine-4-carbonyl)pyrimidin-2-yl)-7-(trifluoromethyl)benzofuran-2-yl)methyl)acrylamide] | > 10 | 0.1 to 5 | 0.1 to 5 | – | – | – |
| Nc1ccc(/C=C/C(=O)NCc2cc3cc(-c4ccc(C(=O)N5CCC(F)(F)CC5)cc4)cc(-c4ccncc4F)c3o2)cn1 [Compound 696, (E)-3-(6-aminopyridin-3-yl)-N-((5-(4-(4,4-difluoropiperidine-1-carbonyl)phenyl)-7-(3-fluoropyridin-4-yl)benzofuran-2-yl)methyl)acrylamide] | – | – | – | 0.1 to 5 | < 0.1 | < 0.1 |
| Nc1ccc(/C=C/C(=O)NCc2cc3cc(-c4ccc(C(=O)N5CCC(F)(F)CC5)cc4)cc(-c4ccc(Cl)cc4)c3o2)cn1 [Compound 742, (E)-3-(6-aminopyridin-3-yl)-N-((7-(4-chlorophenyl)-5-(4-(4,4-difluoropiperidine-1-carbonyl)phenyl)benzofuran-2-yl)methyl)acrylamide] | – | – | – | > 10 | 0.1 to 5 | 0.1 to 5 |
| Nc1ccc(/C=C/C(=O)NCc2cc3cc(-c4ncc(C(=O)N5CCNCC5)cn4)cc(C(F)(F)F)c3o2)cn1 [Compound 590, (E)-3-(6-aminopyridin-3-yl)-N-((5-(5-(piperazine-1-carbonyl)pyrimidin-2-yl)-7-(trifluoromethyl)benzofuran-2-yl)methyl)acrylamide] | > 10 | 0.1 to 5 | 0.1 to 5 | – | – | – |
| Nc1ccc(/C=C/C(=O)NCc2cc3cc(-c4ccc(C(=O)N5CCC(F)(F)CC5)cc4)cc(-c4ccc(F)c(Cl)c4)c3o2)cn1 [Compound 711, (E)-3-(6-aminopyridin-3-yl)-N-((7-(3-chloro-4-fluorophenyl)-5-(4-(4,4-difluoropiperidine-1-carbonyl)phenyl)benzofuran-2-yl)methyl)acrylamide] | – | – | – | 0.1 to 5 | < 0.1 | < 0.1 |
